In publication PMC10707934, “Design and Synthesis of Novel α-Methylchalcone Derivatives, Anti-Cervical Cancer Activity, and Reversal of Drug Resistance in HeLa/DDP Cells” (Molecules, 2023):

Key:
HeLa cells [1] = experiment: MTT anti-proliferation assay, HeLa; assay type: cell-based, human; details: Homo sapiens, 48 h, mean ± SD
Description: All cell types, at a volume of 200 µL per well, were inoculated in 96-well plates at a density of 2.5 × 10^4 cells / mL and cultured for 24 h in an incubator with 5% CO2 at 37 °C. The old culture medium was replaced with 200 µL of fresh medium per well containing positive compounds, at concentrations of 1, 6.25, 12.5, 25, 50, and 100 μM. After 48 h of culture, 20 µL per well of 5 mg·mL^−1 MTT solution was added. After 4 h of culture, the old solution was discarded, and 150 µL per well of DMSO solution was added. Using an enzyme labeler (Thermo Fisher Scientific, Multiskan GO, Waltham, MA, USA), the plates were shaken for 10 min, OD values were determined at 490 nm, and the inhibition rate was calculated. Non-linear regression fitting of the cell growth rate was carried out using SPSS 23.0, and the IC50 of the compound was calculated. The inhibition rate was calculated using the formula: [(ODempty − ODtest)/(ODempty − ODnegative group)] × 100%, (ODempty blank group absorbance, ODtest absorbance of administration group, ODnegative group without cell culture medium). Each group contained six compound holes, and the experimental results averaged three trials. Complete medium containing only cells was used as the blank control; a complete medium without cells as was used as the negative control; and cisplatin, paclitaxel, and adriamycin were used as the positive controls. The concentration gradient was the same as that used for compounds 3a–3p. […]

SiHa cells = experiment: MTT anti-proliferation assay, SiHa; assay type: cell-based, human; details: Homo sapiens, 48 h, mean ± SD
Description: (§1) All cell types, at a volume of 200 µL per well, were inoculated in 96-well plates at a density of 2.5 × 10^4 cells / mL and cultured for 24 h in an incubator with 5% CO2 at 37 °C. The old culture medium was replaced with 200 µL of fresh medium per well containing positive compounds, at concentrations of 1, 6.25, 12.5, 25, 50, and 100 μM. After 48 h of culture, 20 µL per well of 5 mg·mL^−1 MTT solution was added. After 4 h of culture, the old solution was discarded, and 150 µL per well of DMSO solution was added. Using an enzyme labeler (Thermo Fisher Scientific, Multiskan GO, Waltham, MA, USA), the plates were shaken for 10 min, OD values were determined at 490 nm, and the inhibition rate was calculated. Non-linear regression fitting of the cell growth rate was carried out using SPSS 23.0, and the IC50 of the compound was calculated. The inhibition rate was calculated using the formula: [(ODempty − ODtest)/(ODempty − ODnegative group)] × 100%, (ODempty blank group absorbance, ODtest absorbance of administration group, ODnegative group without cell culture medium). Each group contained six compound holes, and the experimental results averaged three trials. Complete medium containing only cells was used as the blank control; a complete medium without cells as was used as the negative control; and cisplatin, paclitaxel, and adriamycin were used as the positive controls. The concentration gradient was the same as that used for compounds 3a–3p.

C33A cells = experiment: MTT anti-proliferation assay, C33A; assay type: cell-based, human; details: Homo sapiens, C-33-A, 48 h, mean ± SD
Description: as §1

[2] = system: human cervical epithelial cells H8; experiment: MTT toxicity assay, normal cervical epithelial cells H8; assay type: cell-based; details: Homo sapiens, Epithelial cell, 48 h, mean ± SD
Description: as §1

HeLa/DDP cells [3] = experiment: MTT anti-cisplatin-resistant cervical cancer activity, HeLa/DDP; assay type: cell-based, human; details: 48 h
Description: as §1
To mitigate the detrimental consequences arising from the fixation of resistance reversal agents, concentrations that yielded a tumor cell proliferation rate reduction of less than 10% were selected. Consequently, the inhibitory efficacy of compound 3k against HeLa/DDP cells was assessed in conjunction with cisplatin at concentrations of 0.25, 0.5, and 1 μM. The experimental procedure employed was akin to that elucidated in Section 3.3.2. The impact of verapamil (6 μM) and 3k (0.25, 0.5, and 1 μM) on P-gp expression was ascertained via Western blot experiments, employing the same methodology delineated in Section 3.3.4.

HeLa/DDP cells [4] = experiment: Annexin V-FITC/PI pro-apoptosis assay, HeLa/DDP; assay type: cell-based, human; details: 24 h, 20 μM
Description: Cell fluid (2 mL per well) at a concentration of 1.5 × 10^5 cells / mL was added to a 6-well plate and cultured in a cell incubator with 5% CO2 at 37 °C for 24 h. The old solution was discarded; 2 mL of the medium containing compound 3k was added to each well at a concentration gradient of 2.5, 5, and 10 μM; and the experiment was repeated three times at each concentration. Complete medium containing only cells was used as a blank control group, and 20 μM of cisplatin injection and chalcone was used as a positive control. Cells were harvested following a 24 h incubation period, adhering to the guidelines provided with the BD kit (BD Biosciences Pharmingen, 556547, 10975 Torreyana Road, San Diego, CA, USA). Subsequently, the cells were subjected to staining in a light-restricted environment at ambient temperature for a duration of 15 min, followed by filtration and analysis via flow cytometry.
The pro-apoptotic experiments of compound 3k, cisplatin, and chalcone on HeLa/DDP were performed in the same way as in Section 3.3.3. Western Blotting Analysis in the same way as in Section 3.3.4.

HeLa cells [5] = experiment: Transwell migration assay, HeLa; assay type: cell-based, human; details: 24 h, 20 μM, control 1176
Description: (§2) HeLa (5 × 10^4 cells) was suspended in 200 μL of FBS-free medium. The top chamber contained the vehicle and various concentrations of compound 3k (2.5, 5, and 10 μM), cisplatin (20 μM) and chalcone (20 μM). The lower chamber was filled with 600 μL of medium containing 10% FBS. After incubating at 37 °C for 24 h, the cells on the top side of the Transwell membrane were removed with a cotton tip. Cells were fixed and stained with 4% paraformaldehyde (LEAGENE BIOTECHNOLOGY, Cat:DF0135, Lot:0823A23, Zhongguancun, Haidian District, Beijing, China) and 0.1% crystal violet solutions (Leagene Biotechnology, Cat:DZ0055, Lot:0508A23, Zhongguancun, Haidian District, Beijing, China) for 30 min to fix cells trapped on the perforated side of the membrane.

HeLa cells [6] = experiment: Transwell Matrigel invasion assay, HeLa; assay type: cell-based, human; details: 24 h, 20 μM
Description: (§3) The Transwell ([…], Corning Incorporated, New York, NY, USA) was precoated using 50 μL Matrigel for 5 h at 37 °C to achieve solidification. HeLa cells was collected and suspended in a serum-free medium containing varying concentrations (0, 2.5, 5, and 10 μM) of compound 3k, along with 20 μM cisplatin and chalcone. These cell suspensions were then added to the upper wells of a permeabilization chamber at a density of 5 × 10^5 cells/mL. In the lower wells, 600 μL of DMEM containing 10% FBS was added, which had been prepared using 50 μL of Matrigel (diluted 1:8 with serum-free medium from Corning/BD Biosciences). After 24 h of incubation at 37 °C, the invasion cells were fixed using 4% paraformaldehyde and stained using 0.1% crystal violet for 30 min. Then, the chambers were washed using PBS and left to dry. Images were photographed using an inverted fluorescence microscope (Leica Instruments Co., Ltd., Microsystems CMS GmbH, Weizler, Hesse, Germany) and counted using Image J software (V1.8.0.112) for three independent fields randomly.

HeLa/DDP cells [7] = experiment: Transwell migration assay, HeLa/DDP; assay type: cell-based, human; details: 24 h, 20 μM, control 497
Description: as §2
(§4) The experimental methods for the effects of compound 3k, cisplatin, and chalcone on HeLa/DDP cell invasion and migration were the same as in Section 3.3.6.

HeLa/DDP cells [8] = experiment: Transwell Matrigel invasion assay, HeLa/DDP; assay type: cell-based, human; details: 24 h, 20 μM, control 399
Description: as §3, §4

[9] = system: α-/β-tubulins in HeLa cells; experiment: Western blot of polymerized and dissociated α-/β-tubulins, HeLa; assay type: cell-based, human; details: 24 h, versus control
Description: (§5) HeLa cells were cultured in 60 mm Petri dishes at a density of 1.0 × 10^6 cells per dish and treated with 0.1% DMSO (vehicle), positive control chalcone (20 μM), and different concentrations of compound 3k (2.5, 5, and 10 μM), respectively. Following a 24 and 48 h incubation period, the cells were harvested via centrifugation and subsequently washed twice with PBS that had been chilled to 0 °C. Next, the cells were homogenized using RIPA lysis buffer (Solarbio, Beijing, China) and supplemented with 1% PMSF (MP Biomedicals, 0754-25G, CAS:329-98-6, Santa Ana, CA, USA) and 1% mixed phosphatase inhibitor (Solarbio, Beijing, China). The resulting lysates were then incubated on ice for 30 min, intermittently vortexed every 5 min, and subsequently centrifuged at 12,000 rpm for 20 min to collect the supernatants.
(§6) Subsequently, the protein concentrations were determined utilizing a BCA Protein Assay Kit (Solarbio, China). An equivalent quantity of the proteins (12 μg) was fractionated via 8–12% sodium dodecyl sulfate–polyacrylamide gel electrophoresis (SDS-PAGE) and transferred onto nitrocellulose membranes (Amersham Biosciences, Amersham, UK). Following this, the membranes were obstructed with 5% nonfat dried milk in TBS containing 1% Tween-20 for a duration of 2 h at ambient temperature and were subjected to overnight incubation with specific primary antibodies (CST, Boston, MA, USA) at 4 °C. Following three washes in TBST, the membranes were subjected to incubation with the suitable HRP-conjugated secondary antibodies at ambient temperature for a duration of 2 h. The blots were subsequently visualized using enhanced chemiluminescence (Biosharp, Shanghai, China) and detected utilizing a PE 0723 imager (ProteinSimple, Silicon Valley, CA, USA). Each experiment was conducted in triplicate at minimum and analyzed employing Image J software (V1.8.0.112). β-actin(ab198991) rabbit mAb, goat anti-rabbit IgG (H + L) HRP—#S0001 (Affinity). Bax (ab289364), Bcl-2 (ab218123), MDR1/ABCB1 (E1Y7B) rabbit mAb #13342 (CST).
(§7) Polymerized and free microtubule proteins were extracted using the methods described in references, respectively. Following drug intervention, the cells were subjected to two washes with preheated microtubule protein buffer MTSB at 37 °C. Subsequently, 70 μL of MTSB was added, and the cells were lysed for 10 min at 37 °C in a constant temperature chamber shielded from light. The cells were then scraped with a spatula and centrifuged at 14,000 r/min for 10 min at room temperature. The resulting supernatant, which represented the free state microtubule protein suspension, was subsequently removed. The remaining precipitate was treated with RIPA lysis solution, followed by lysis on ice for a duration of 30 min. Subsequently, centrifugation was performed at a temperature of 4 °C and a speed of 12,000 revolutions per minute for a duration of 20 min. The resulting supernatant was collected as a suspension of polymerized microtubule protein. The Western blotting procedure was the same as in Section 3.3.4. α-Tubulin (DM1A) Mouse mAb#3873 (CST), β-Tubulin (D2N5G) Rabbit mAb #15115 (CST), CoraLite488-conjugated Goat Anti-Mouse lgG(H+L) (Proteintech); CoraLite488-conjugated Goat Anti-Rabbit lgG(H+L) (Proteintech); β-actin(ab198991) rabbit mAb, Goat Anti-Mouse IgG H&L (HRP) (ab6789); Goat anti-Rabbit IgG (H+L) HRP—#S0001 (Affinity).

[10] = system: α-/β-tubulins in HeLa/DDP cells; experiment: Western blot of polymerized and dissociated α-/β-tubulins, HeLa/DDP; assay type: cell-based, human; details: 24 h, versus control
Description: as §5, §6, §7

SMILES | IC50 (HeLa cells [1]) | IC50 (SiHa cells) | IC50 (C33A cells) | IC50 [2] | resistance index (RI) (HeLa/DDP cells [3]; HeLa/DDP versus parental HeLa) | IC50 (HeLa/DDP cells [3]; Homo sapiens, HeLa/DDP, MTT, mean ± SD) | pro-apoptotic rate (HeLa/DDP cells [4]) | number of migrated cells (HeLa cells [5]) | number of cells undergoing invasion (HeLa cells [6]) | number of migrated cells (HeLa/DDP cells [7]) | number of invasion cells (HeLa/DDP cells [8]) | expression of dissociated state α and β microtubule proteins ([9]; 3k 4 μM, colchicine 2 μM, paclitaxel 2.0 μM) | expression of α and β microtubule proteins in the polymerized state ([9]; 3k 2 and 4 μM, colchicine and paclitaxel 2.0 μM) | expression of dissociated state α and β microtubule proteins ([10]; 3k 4 μM, colchicine and paclitaxel 2.0 μM) | expression of polymerized state α and β microtubule proteins ([10]; positive drugs 2.0 μM)
O=C(/C=C/c1ccccc1)c1ccccc1 [Chalcone, (E)-chalcone] | 67 ± 4.56 µM | 62 ± 1.84 µM | 37.5 ± 1.5 µM | 78.5 ± 7.78 µM | 1.31 | 88 ± 7.27 µM | 13.8% | 689 | 422 | 319 | 347 | – | – | – | –
COc1cc2c(c(OC)c1OC)-c1ccc(OC)c(=O)cc1[C@@H](NC(C)=O)CC2 [colchicine] | – | – | – | – | – | – | – | – | – | – | – | significantly increased | decrease | increase | significant decrease
